# Reference: patent publication US7410945B2, “Treatment of inflammatory bowel disease” (The University of Queensland, priority 2002, dated 2008)
# Entries after “also recorded” stand apart in the source; their conditions may differ.
# How the values were obtained:
# [1] = tested on: TNBS-induced colitis in rats; experiment: TNBS-induced colitis in rats, acute 24-hour study; type: in vivo, rat; conditions: for colon macroscopic score: scale 0-13
# Description: Two time-frames were chosen for this study, an acute time frame (24 hours), and a chronic time frame (8-days). During the course of the study both body weight and food eaten were measured daily. In the 24-hour study, all drug treatments commenced 2 days prior to instillation of TNBS (prevention). PMX53-, prednisolone- and combination-treated rats were treated once daily, and C3a antagonist-treated rats were dosed twice daily. Rats treated with the anti-TNF-α monoclonal antibody, infliximab, were dosed intravenously on one occasion, 2 days prior to TNBS instillation.
# Statistical significance was assessed at P<0.05.
# [2] = tested on: TNBS-induced colitis in rats; experiment: TNBS-induced colitis in rats, chronic 8-day study
# Description: Male Wistar rats (250-300 g) were starved for 24 hours prior to being anaesthetised with ketamine (80 mg/kg i.p.) and xylazine (8 mg/kg i.p.). […] 120 mg/kg TNBS (50 mg/mL solution) along with 250 μL ethanol (100%) was then instilled to rats, which remained in the head-down position for 30 min to prevent leakage. Sham-operated rats (rats without colitis) received either saline alone or 250 μL ethanol and saline. Rats were then allowed to recover under observation.
# At the completion of each experiment, rats were anaesthetized with zolazapam (50 mg/kg, IP) and xylazine (12 mg/kg, IP), and blood was collected and serum stored at −20° C. for later determination of TNF-α concentrations. Colons were dissected, and the distal 8-cm rinsed with saline and scored for clinical macroscopic damage by an independent blinded observer, using a scale of 0-13 as set out below (Bobin-Dubigeon et al, 2001). A section of the affected colon was then collected, weighed, placed in an 80° C. oven for 24 h, then reweighed and the wet-to-dry weight ratio determined as a measure of colon oedema (Rachmilewitz et al., 1989). A separate section of affected colon was also collected and homogenized with 1 mL phosphate buffered saline, sonicated for 20 seconds and centrifuged (14 000×g, 10 min). The resulting supernatant was then either stored (−20° C.) for later TNF-α determination, or used immediately in an assay for the determination of myeloperoxidase (MPO) levels. Briefly, the assay involved the addition of 20 μL substrate (o-dianisidine, 2.85 mg/mL, Sigma, U.S.A.; and 0.85% hydrogen peroxidase) to a 1:40 dilution of supernatant in phosphate buffered saline. […] Results for colon MPO content were converted to absorbance units/g tissue. Additional sections of colon were removed and stored in 10% formalin for histopathological analysis. Fixed colonic samples were embedded in paraffin wax, and sections were stained using a haematoxylin and eosin stain, photographed and examined by an independent observer in a blinded fashion. Tissue and serum TNF-α levels were determined from stored samples using an enzyme-linked immunoabsorbent assay as previously described (Arumugam et al, 2002), using undiluted samples. Results for colonic TNF-α content were then converted to pg TNF-α /g tissue.
# In the 8-day study, drug-treated rats were treated both prior to colitis induction (2 days before; prevention) or following colitis induction (24 hours after; reversal).
# All experimental results are expressed as means±standard error of the mean (SEM). Data analysis was performed using GraphPad Prism 3.0 software (GraphPad Software, Inc. USA). Statistical comparisons were made between drug-treated groups and colitis control animals using a one-way analysis of variance followed by a Dunnett comparison post-test analysis. Statistical significance was assessed at P<0.05.
# [3] = target: T1, C3a receptor (Homo sapiens, UniProt Q16581); conditions: Finch et al, 1999; cited from earlier work
# T1 sequence (Q16581 1-482): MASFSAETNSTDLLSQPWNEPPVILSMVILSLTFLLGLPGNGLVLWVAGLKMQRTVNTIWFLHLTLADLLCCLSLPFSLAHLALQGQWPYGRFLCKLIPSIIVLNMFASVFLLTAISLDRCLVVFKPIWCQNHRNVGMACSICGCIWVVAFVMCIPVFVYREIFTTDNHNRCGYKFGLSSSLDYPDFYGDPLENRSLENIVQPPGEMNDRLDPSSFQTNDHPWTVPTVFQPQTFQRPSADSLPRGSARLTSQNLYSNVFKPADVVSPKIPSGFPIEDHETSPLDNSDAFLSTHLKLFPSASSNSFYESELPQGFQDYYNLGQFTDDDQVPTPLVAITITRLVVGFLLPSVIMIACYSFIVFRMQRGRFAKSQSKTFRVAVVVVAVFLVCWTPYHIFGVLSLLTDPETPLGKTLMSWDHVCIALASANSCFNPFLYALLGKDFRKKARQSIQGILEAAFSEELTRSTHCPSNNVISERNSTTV
# [4] = tested on: C5a receptor; conditions: cited from earlier work
# [5] = tested on: membrane attack complex; conditions: Arumugam et al, 2003; cited from earlier work
# [6] = 24 h, drug pre-treatment, vs drug-free colitis control
# [7] = 8 days, pre-treated 3 mg/kg IV, P<0.05
# [8] = 8 days, pre-treated rats, haematoxylin and eosin sections, vs drug-free rats
# [9] = pre-treatment (from 2 days before colitis induction)
# [10] = 24 h, pre-treated 10 mg/kg/day oral or 0.3 mg/kg/day SC, P<0.05 vs colitis control
# [11] = 8 days, prior to induction (10 mg/kg/day oral and 0.3 mg/kg/day SC) or 24 h after induction (1 and 10 mg/kg/day oral), P<0.05
# [12] = 8 days, prior to induction (10 mg/kg/day oral and 0.3 mg/kg/day SC) or 24 h after induction (1 and 10 mg/kg/day oral), P<0.05, listed as C5a antagonist
# [13] = post-treatment (from 24 h after colitis induction; reversal)
# [14] = 8 days, post-treated 1 mg/kg/day SC, P>0.05
# [15] = 8 days, pre-treated 1 mg/kg/day SC, P<0.05
compound,measurement,setting,value
infliximab,colon macroscopic score,[1]; [6],significant improvement seen in all treatment groups except for infliximab
same,colonic MPO levels,[2]; [7],significantly reduced colonic MPO levels
same,food consumption,[2]; [7],ate significantly more food than drug-free rats
same,colon oedema (wet-to-dry weight ratio),"[2]; 8 days, pre-treated 3 mg/kg IV, P>0.05",no significant reductions
same,colon histopathology,[2]; [8],showed an improvement in pathology
same,mortality,"[2]; 8 days, pre-treatment 3 mg/kg IV",20%
same,colon macroscopic score,"[2]; Day 8, pre-treated 3 mg/kg IV, P<0.05",significantly decreased scores
same,change in body weight,"[2]; Day 8, pre-treated 3 mg/kg IV, P>0.05","only a small weight gain at Day 8; however, these levels were not significantly higher than colitis control rats"
same,overall disease parameters / markers,[2]; [9],"did reduce the severity of lesions, it was not as effective as the C5a antagonist or prednisolone"
same,overall disease parameters / markers,"[2]; pre-treatment (from 2 days before colitis induction), listed as Infliximab","significantly reduced disease parameters, however to a lesser extent than those observed in PMX53-treated rats"
AcF-[OPdChaWR] [PMX53],colon TNF-α levels,[1]; 24-hour study,significantly reduced
same,colon oedema,"[1]; 24 h, drug pre-treatment, vs colitis control",significantly reduced
same,colon MPO levels (neutrophil accumulation),[1]; [6],significantly reduced
same,colon MPO levels,[1]; [10],significant improvement
same,colon oedema (wet-to-dry weight ratio),[1]; [10],significant reduction in wet-to-dry weight ratios
same,colon macroscopic score,[1]; [6],significantly lower colon macroscopic scores
same,food consumption,"[1]; 24 h after TNBS, drug pre-treatment from 2 days before TNBS, vs drug-free colitis control",higher body weights and food intake
same,change in body weight,"[1]; 24 h after TNBS, drug pre-treatment, vs drug-free colitis control",higher body weights
same,overall disease pathology / parameters measured,[1]; 24 h study,significantly improves disease pathology
same,binding to the C3a receptor,[3],does not bind
same,specificity for the C5a receptor over other related human receptors,"[4]; Finch et al, 1999",specific for the C5a receptor over other related human receptors
same,specificity for the C5a receptor across species,"[4]; human, rat and dog, Woodruff et al, 2001","specific for the C5a receptor in human, rat and dog"
same,effect on the formation of the membrane attack complex,[5],no effect
same,colon histopathology,"[2]; 8 days, post-treated 10 mg/kg/day oral (PO), FIG. 8C",decrease in inflammatory cell accumulation and haemorrhage formation
same,colon histopathology,"[2]; 8 days, post-treated 10 mg/kg/day oral (PO), FIG. 8C, listed as C5a antagonist","showed an improvement in disease pathology; also recorded: IC infiltration and E, but with intact ML"
same,deaths,"[2]; 8 days, pre-treated 0.3 mg/kg SC",no deaths
same,colon histopathology,[2]; [8],showed an improvement in pathology
same,colon oedema (wet-to-dry weight ratio),[2]; [11],significantly lower
same,colonic MPO levels (neutrophil accumulation),[2]; [11],significantly lower
same,colon oedema (wet-to-dry weight ratio),[2]; [12],significant improvement in colon wet-to-dry weight ratios; also recorded: significant reductions in wet-to-dry weight ratios
same,colonic MPO levels (neutrophil accumulation),[2]; [12],reduced to similar levels to those of the sham-operated animals
same,mortality rate,"[2]; 8 days, prior to induction (10 mg/kg/day oral and 0.3 mg/kg/day SC) or 24 h after induction (1 or 10 mg/kg/day oral)",≤ 20%
same,food consumption,"[2]; 8 days, prior to induction (10 mg/kg/day oral and 0.3 mg/kg/day SC) or 24 h after induction (1 or 10 mg/kg/day oral), P<0.05",ate significantly more food
same,food consumption,"[2]; 8 days, prior to induction (10 mg/kg/day oral and 0.3 mg/kg/day SC) or 24 h after induction (1 or 10 mg/kg/day oral), P<0.05, listed as C5a antagonist",ate significantly more food than colitis control rats
same,change in body weight,"[2]; 8 days, prior to induction (10 mg/kg/day oral and 0.3 mg/kg/day SC) or 24 h after induction (1 or 10 mg/kg/day oral), P<0.05 vs colitis control",lost significantly less body weight
same,change in body weight,"[2]; 8 days, prior to induction (10 mg/kg/day oral and 0.3 mg/kg/day SC) or 24 h after induction (1 or 10 mg/kg/day oral), P<0.05 vs colitis control, listed as C5a antagonist","gained significant weight; also recorded: gained substantial weight over the 8 days, with significantly higher weights compared to colitis control rats"
same,colon macroscopic score,"[2]; Day 8, prior to induction (10 mg/kg/day oral and 0.3 mg/kg/day SC) or 24 h after induction (1 or 10 mg/kg/day oral), P<0.05",significantly lower colon macroscopic scores
same,colon macroscopic score,"[2]; Day 8, prior to induction (10 mg/kg/day oral and 0.3 mg/kg/day SC) or 24 h after induction (1 or 10 mg/kg/day oral), P<0.05, listed as C5a antagonist",significantly improved macroscopic scores
same,colonic tissue TNF-α levels,"[2]; after 8 days, vs drug-free colitis control, P<0.05",significantly lower
same,mortality,"[2]; over 8 days, vs drug-free colitis control (39%)",reduced mortality
same,overall disease parameters / markers,[2]; [13],significant reduction in all disease markers
same,overall disease parameters / markers,[2]; [9],markedly reduced all the disease markers measured
same,overall disease pathology,"[2]; rat model of chronic colitis, pre- and post-treatment",both prevents and reverses disease pathology
C[C@]12C=CC(=O)C=C1CC[C@@H]1[C@@H]2[C@@H](O)C[C@@]2(C)[C@H]1CC[C@]2(O)C(=O)CO [prednisolone],colon histopathology,"[2]; 8 days, post-treated 1 mg/kg/day SC, FIG. 8D","showed no improvement in disease pathology; also recorded: IC infiltration, E, extensive haemorrhage (H) and erosion of ML"
same,colonic MPO levels,[2]; [14],did not show any improvement in colonic MPO levels
same,colonic tissue TNF-α levels,[2]; [14],no significant reduction
same,food consumption,[2]; [14],no improvement in food consumption
same,colon oedema (wet-to-dry weight ratio),"[2]; 8 days, post-treatment 1 mg/kg/day SC",no effect on reducing oedema
same,mortality,"[2]; 8 days, post-treatment (24 h after induction)",no significant effect on reducing mortality
same,mortality rate,"[2]; 8 days, pre-treated 1 mg/kg/day SC",11%
same,colonic MPO levels,[2]; [15],significantly reduced colonic MPO levels
same,food consumption,[2]; [15],ate significantly more food than colitis control rats
same,colon oedema (wet-to-dry weight ratio),"[2]; 8 days, pre-treated 1 mg/kg/day SC, P>0.05",no significant reductions
same,change in body weight,"[2]; 8 days, pre-treated or post-treated 1 mg/kg/day SC, P>0.05","lost weight over the 8 days, with no significant difference compared to colitis control rats; also recorded: lost considerable body weight"
same,colon histopathology,[2]; [8],showed an improvement in pathology
same,colon macroscopic score,"[2]; Day 8, post-treated 1 mg/kg/day SC, P>0.05",did not have any improvement in macroscopic scores
same,colon macroscopic score,"[2]; Day 8, pre-treated 1 mg/kg/day SC, P<0.05",significantly improved macroscopic scores
same,overall disease parameters / markers,[2]; [13],reversal of pathology was not seen; also recorded: no appreciable therapeutic effects
same,overall disease parameters / markers,[2]; [9],only prednisolone pre-treated rats displayed any improvement in the disease parameters measured; also recorded: effective at reducing the majority of parameters measured
"NC(N)=NCCC[C@H](NC(=O)COCC(c1ccccc1)c1ccccc1)C(=O)O [SB 290157, Ph2CHCH2OCH2CO-Arg-OH, reference compound]",colon oedema (wet-to-dry weight ratio),"[1]; 24 h, C3a antagonist 30 mg/kg bid IP, pre-treatment",did not have a significant effect
same,overall disease pathology / parameters measured,[1]; 24 h study,effective in reducing some of the parameters measured; also recorded: able to modulate the pathology of IBD
same,macroscopic damage,"[1]; 24 h study, 30 mg/kg i.p. twice daily, vs colitis control",reduced the intensity of macroscopic damage
